Assay results: patent US20120122860A1, “SOLID FORMS OF SULFONAMIDES AND AMINO ACIDS” (Plexxikon, Inc., priority 2009, published 2012)

Assays:
B-Raf V600E = B-Raf V600E (Homo sapiens, UniProt P15056, V600E); assay: Kinase activity assay, B-Raf V600E; type: biochemical; settings: read-out: activity toward kinase B-Raf V600E, IC50
Btk = Btk (Homo sapiens, UniProt Q06187); assay: Kinase activity assay, Btk
Kdr = Kdr (Homo sapiens, UniProt P35968); assay: Kinase activity assay, Kdr
C-Raf = C-Raf (Homo sapiens, UniProt P04049); assay: Kinase activity assay, C-Raf
Fms = Fms (Homo sapiens, UniProt P07333); assay: Kinase activity assay, Fms
Src = Src (Homo sapiens, UniProt P12931); assay: Kinase activity assay, Src
Kit = Kit (Homo sapiens, UniProt P10721); assay: Kinase activity assay, Kit
B-Raf = B-Raf (Homo sapiens, UniProt P15056); assay: Kinase activity assay, B-Raf; type: biochemical; settings: read-out: activity toward kinase B-Raf, IC50
Chain of B-Raf (P15056 whole entry): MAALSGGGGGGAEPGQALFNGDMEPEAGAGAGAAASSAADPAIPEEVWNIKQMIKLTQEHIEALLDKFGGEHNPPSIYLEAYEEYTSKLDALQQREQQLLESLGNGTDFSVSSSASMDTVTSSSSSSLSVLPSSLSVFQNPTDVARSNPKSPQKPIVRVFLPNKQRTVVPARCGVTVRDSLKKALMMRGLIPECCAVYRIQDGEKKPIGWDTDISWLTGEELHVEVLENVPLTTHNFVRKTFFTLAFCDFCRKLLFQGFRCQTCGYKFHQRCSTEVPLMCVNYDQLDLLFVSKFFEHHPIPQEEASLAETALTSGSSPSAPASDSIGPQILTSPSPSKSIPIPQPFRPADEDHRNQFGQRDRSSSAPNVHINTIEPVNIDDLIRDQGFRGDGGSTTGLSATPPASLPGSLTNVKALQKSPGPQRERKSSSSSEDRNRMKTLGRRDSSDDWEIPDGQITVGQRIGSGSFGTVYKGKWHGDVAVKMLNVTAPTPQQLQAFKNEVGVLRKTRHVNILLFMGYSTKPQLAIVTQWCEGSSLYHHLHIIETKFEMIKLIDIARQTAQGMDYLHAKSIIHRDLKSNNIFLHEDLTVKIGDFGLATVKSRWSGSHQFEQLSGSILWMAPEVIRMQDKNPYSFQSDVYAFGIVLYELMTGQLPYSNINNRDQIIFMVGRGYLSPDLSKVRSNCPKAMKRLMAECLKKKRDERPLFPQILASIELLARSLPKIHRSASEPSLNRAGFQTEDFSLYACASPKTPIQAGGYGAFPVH

Chain of Kit (P10721 26-976): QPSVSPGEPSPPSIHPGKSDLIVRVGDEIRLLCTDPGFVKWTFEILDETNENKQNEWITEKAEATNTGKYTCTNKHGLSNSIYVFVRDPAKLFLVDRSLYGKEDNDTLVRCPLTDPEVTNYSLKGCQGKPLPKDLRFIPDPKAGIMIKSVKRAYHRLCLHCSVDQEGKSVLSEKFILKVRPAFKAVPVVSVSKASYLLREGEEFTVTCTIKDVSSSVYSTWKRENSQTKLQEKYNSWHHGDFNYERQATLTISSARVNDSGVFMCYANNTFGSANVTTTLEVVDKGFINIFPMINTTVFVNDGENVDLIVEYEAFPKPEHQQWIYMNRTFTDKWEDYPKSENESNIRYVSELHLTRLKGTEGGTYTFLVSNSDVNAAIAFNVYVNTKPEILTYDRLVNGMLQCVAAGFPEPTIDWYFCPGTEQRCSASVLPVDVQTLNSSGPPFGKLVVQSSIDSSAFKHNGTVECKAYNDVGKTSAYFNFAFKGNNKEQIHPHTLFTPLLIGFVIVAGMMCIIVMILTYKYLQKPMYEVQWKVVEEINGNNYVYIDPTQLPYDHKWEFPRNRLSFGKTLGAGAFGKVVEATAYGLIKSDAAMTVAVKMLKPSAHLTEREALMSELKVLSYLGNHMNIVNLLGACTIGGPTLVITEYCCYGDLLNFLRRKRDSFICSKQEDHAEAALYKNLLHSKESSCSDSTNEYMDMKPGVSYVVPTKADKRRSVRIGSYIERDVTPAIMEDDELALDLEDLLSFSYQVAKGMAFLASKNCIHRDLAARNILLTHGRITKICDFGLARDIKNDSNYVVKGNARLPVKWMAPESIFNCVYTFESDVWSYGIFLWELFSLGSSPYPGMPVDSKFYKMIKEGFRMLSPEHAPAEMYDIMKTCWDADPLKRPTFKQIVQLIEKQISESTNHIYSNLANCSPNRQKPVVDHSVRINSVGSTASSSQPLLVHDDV
Chain of Src (P12931 whole entry): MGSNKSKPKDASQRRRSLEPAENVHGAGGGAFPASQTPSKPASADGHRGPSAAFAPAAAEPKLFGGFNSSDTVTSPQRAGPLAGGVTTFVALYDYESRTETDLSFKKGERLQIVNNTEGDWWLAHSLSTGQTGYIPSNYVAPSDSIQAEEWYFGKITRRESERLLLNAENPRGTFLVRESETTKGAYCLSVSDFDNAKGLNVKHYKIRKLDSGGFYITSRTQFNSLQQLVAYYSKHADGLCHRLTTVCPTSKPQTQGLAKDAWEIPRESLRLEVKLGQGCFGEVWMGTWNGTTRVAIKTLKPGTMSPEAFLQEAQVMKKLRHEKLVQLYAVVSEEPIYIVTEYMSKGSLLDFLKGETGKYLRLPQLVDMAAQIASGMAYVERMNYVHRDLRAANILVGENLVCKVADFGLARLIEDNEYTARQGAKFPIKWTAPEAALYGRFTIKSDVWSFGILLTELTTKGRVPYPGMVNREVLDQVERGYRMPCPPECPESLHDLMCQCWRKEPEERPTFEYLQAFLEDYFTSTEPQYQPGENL
Chain of B-Raf V600E (P15056 whole entry V600E): as the sequence (P15056 whole entry) above, with V600E counted along it
Chain of Kdr (P35968 20-1356): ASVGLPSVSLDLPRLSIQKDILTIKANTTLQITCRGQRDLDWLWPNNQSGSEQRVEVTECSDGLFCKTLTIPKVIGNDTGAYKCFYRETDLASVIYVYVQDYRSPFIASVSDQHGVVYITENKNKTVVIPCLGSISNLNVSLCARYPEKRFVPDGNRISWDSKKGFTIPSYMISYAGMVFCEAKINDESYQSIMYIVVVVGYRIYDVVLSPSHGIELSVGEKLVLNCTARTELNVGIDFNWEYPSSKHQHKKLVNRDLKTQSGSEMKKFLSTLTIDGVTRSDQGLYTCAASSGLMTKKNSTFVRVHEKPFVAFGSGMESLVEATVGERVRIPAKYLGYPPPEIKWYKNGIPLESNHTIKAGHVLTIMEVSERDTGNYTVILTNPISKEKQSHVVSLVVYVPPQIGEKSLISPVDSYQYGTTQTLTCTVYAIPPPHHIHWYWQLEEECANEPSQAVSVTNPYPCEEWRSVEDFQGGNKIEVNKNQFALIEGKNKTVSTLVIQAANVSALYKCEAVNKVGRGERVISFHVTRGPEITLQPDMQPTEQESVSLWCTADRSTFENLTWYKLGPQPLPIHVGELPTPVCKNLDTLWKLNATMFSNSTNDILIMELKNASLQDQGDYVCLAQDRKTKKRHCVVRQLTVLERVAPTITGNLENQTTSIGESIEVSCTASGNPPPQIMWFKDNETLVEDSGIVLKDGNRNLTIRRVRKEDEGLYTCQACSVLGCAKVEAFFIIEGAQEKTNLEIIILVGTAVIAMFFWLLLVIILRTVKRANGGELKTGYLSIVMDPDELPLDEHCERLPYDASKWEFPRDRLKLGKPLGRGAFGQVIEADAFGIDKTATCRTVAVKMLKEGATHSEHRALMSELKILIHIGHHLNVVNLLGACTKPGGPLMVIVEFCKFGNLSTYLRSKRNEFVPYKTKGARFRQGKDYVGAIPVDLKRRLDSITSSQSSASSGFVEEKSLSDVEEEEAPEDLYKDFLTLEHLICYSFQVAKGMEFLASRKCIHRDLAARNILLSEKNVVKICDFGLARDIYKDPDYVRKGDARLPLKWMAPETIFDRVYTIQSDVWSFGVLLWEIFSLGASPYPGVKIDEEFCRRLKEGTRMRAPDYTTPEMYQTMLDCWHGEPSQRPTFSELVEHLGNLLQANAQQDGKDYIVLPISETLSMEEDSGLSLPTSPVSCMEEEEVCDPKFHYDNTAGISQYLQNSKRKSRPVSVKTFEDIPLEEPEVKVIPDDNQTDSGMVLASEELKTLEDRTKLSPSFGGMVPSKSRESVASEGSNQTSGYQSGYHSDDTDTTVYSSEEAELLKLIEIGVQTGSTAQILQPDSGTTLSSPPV
Chain of Fms (P07333 20-972): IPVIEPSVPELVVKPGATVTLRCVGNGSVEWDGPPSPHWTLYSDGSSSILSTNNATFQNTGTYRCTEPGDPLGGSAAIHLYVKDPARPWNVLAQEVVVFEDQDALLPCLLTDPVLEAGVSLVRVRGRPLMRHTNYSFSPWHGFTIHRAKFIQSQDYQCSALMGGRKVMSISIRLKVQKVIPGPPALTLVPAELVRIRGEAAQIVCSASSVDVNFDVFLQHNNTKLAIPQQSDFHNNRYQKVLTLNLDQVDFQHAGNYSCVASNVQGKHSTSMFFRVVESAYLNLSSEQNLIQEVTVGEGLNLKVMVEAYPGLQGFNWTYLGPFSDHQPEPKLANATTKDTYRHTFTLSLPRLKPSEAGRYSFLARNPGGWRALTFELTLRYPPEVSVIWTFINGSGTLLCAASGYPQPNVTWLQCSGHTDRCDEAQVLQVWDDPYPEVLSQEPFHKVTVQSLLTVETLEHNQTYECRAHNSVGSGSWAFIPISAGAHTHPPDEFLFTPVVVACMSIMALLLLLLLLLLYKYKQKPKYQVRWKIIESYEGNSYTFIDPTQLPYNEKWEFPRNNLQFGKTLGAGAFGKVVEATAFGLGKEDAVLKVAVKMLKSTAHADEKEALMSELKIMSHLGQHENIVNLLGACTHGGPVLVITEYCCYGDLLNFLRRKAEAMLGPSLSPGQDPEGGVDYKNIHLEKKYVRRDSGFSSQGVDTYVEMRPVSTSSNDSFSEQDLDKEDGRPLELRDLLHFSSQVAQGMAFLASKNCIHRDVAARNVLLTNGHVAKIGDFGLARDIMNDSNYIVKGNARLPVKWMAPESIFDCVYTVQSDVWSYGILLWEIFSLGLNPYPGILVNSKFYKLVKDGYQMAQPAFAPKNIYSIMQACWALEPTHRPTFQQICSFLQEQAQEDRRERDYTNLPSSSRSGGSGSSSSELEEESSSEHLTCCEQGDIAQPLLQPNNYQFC

Row | Structure (SMILES) | IC50 (B-Raf V600E) | IC50 (Btk) | IC50 (Kdr) | IC50 (C-Raf) | IC50 (Fms) | IC50 (Src) | IC50 (Kit) | IC50 (B-Raf)
1 | CCCS(=O)(=O)Nc1ccc(F)c(C(=O)c2c[nH]c3ncc(-c4ccc(OC)nc4OC)cc23)c1F [P-2184, Propane-1-sulfonic acid {3-[5-(2,6-dimethoxy-pyridin-3-yl)-1H-pyrrolo[2,3-b]pyridine-3-carbonyl]-2,4-difluoro-phenyl}-amide] | ≤ 10 µM | ≤ 10 µM | ≤ 10 µM |  | ≤ 10 µM | ≤ 10 µM | ≤ 10 µM | ≤ 10 µM
2 | CCCS(=O)(=O)Nc1ccc(F)c(C(=O)c2c[nH]c3ncc(-c4cnn(Cc5ccccc5)c4)cc23)c1F [P-2190, Propane-1-sulfonic acid {3-[5-(1-benzyl-1H-pyrazol-4-yl)-1H-pyrrolo[2,3-b]pyridine-3-carbonyl]-2,4-difluoro-phenyl}-amide] | ≤ 10 µM | ≤ 10 µM | ≤ 10 µM |  | ≤ 10 µM | ≤ 10 µM | ≤ 10 µM | ≤ 10 µM
3 | CCCS(=O)(=O)Nc1ccc(F)c(C(=O)c2c[nH]c3ncc(-c4ccc(S(N)(=O)=O)cc4)cc23)c1F [P-2194, 4-{3-[2,6-Difluoro-3-(propane-1-sulfonylamino)-benzoyl]-1H-pyrrolo[2,3-b]pyridin-5-yl}-benzenesulfonamide] | ≤ 10 µM | ≤ 10 µM | ≤ 10 µM |  | ≤ 10 µM | ≤ 10 µM | ≤ 10 µM | ≤ 10 µM
4 | O=C(c1c(F)ccc(NS(=O)(=O)C2CC2)c1F)c1c[nH]c2ncc(-c3ccc(Cl)cc3)cc12 [P-2350, Cyclopropanesulfonic acid {3-[5-(4-chloro-phenyl)-1H-pyrrolo[2,3-b]pyridine-3-carbonyl]-2,4-difluoro-phenyl}-amide] |  | ≤ 10 µM | ≤ 10 µM | ≤ 10 µM | ≤ 10 µM | ≤ 10 µM | ≤ 10 µM | 
5 | O=C(c1c(F)ccc(NS(=O)(=O)C2CC2)c1F)c1c[nH]c2ncc(-c3ccc(F)cc3)cc12 [P-2351, Cyclopropanesulfonic acid {2,4-difluoro-3-[5-(4-fluoro-phenyl)-1H-pyrrolo[2,3-b]pyridine-3-carbonyl]-phenyl}-amide] | ≤ 10 µM | ≤ 10 µM | ≤ 10 µM |  | ≤ 10 µM | ≤ 10 µM | ≤ 10 µM | ≤ 10 µM

The next lines start with the values.

Row | IC50 (B-Raf V600E) | IC50 (Btk) | IC50 (Kdr) | IC50 (C-Raf) | IC50 (Fms) | IC50 (Src) | IC50 (Kit) | IC50 (B-Raf) | Structure (SMILES)
6 | ≤ 10 µM | ≤ 10 µM | ≤ 10 µM | ≤ 10 µM | ≤ 10 µM | ≤ 10 µM | ≤ 10 µM | ≤ 10 µM | Cn1cc(-c2cnc3[nH]cc(C(=O)c4cc(NS(=O)(=O)c5cccc(C(F)(F)F)c5)ccc4F)c3c2)cn1 [P-2101, N-{4-Fluoro-3-[5-(1-methyl-1H-pyrazol-4-yl)-1H-pyrrolo[2,3-b]pyridine-3-carbonyl]-phenyl}-3-trifluoromethyl-benzenesulfonamide]
7 | ≤ 10 µM | ≤ 10 µM | ≤ 10 µM |  | ≤ 10 µM | ≤ 10 µM | ≤ 10 µM | ≤ 10 µM | Cn1cc(-c2cnc3[nH]cc(C(=O)c4cc(NS(=O)(=O)c5cccc(OC(F)(F)F)c5)ccc4F)c3c2)cn1 [P-2102, N-{4-Fluoro-3-[5-(1-methyl-1H-pyrazol-4-yl)-1H-pyrrolo[2,3-b]pyridine-3-carbonyl]-phenyl}-3-trifluoromethoxy-benzenesulfonamide]
8 | ≤ 10 µM | ≤ 10 µM | ≤ 10 µM |  | ≤ 10 µM | ≤ 10 µM | ≤ 10 µM | ≤ 10 µM | Cn1cc(-c2cnc3[nH]cc(C(=O)c4cc(NS(=O)(=O)c5cccc(Cl)c5)ccc4F)c3c2)cn1 [P-2103, 3-Chloro-N-{4-fluoro-3-[5-(1-methyl-1H-pyrazol-4-yl)-1H-pyrrolo[2,3-b]pyridine-3-carbonyl]-phenyl}-benzenesulfonamide]
